Experimental data taken from patent US20070193894A1, “Container for constituting a formulation in liquid form” (IDD-EAL MANUFACTURING COMPANY LIMITED, priority 2004, published 2007).

Key:
[1] = Acetaminophen formulation blends tested in different volumes of water and containers; type: physicochemical; conditions: conclusion of Example 13
Procedure: Blends of the above components were tested in three different volumes df water: 20 ml, 40 ml and 80 ml in different containers.
In the case of the second formulation a single volume (20 ml) in two different containers were investigated, namely a small bottle and a sampling container with cap.

[2] = Ibuprofen formulation test: behaviour in water; type: physicochemical; conditions: conclusion of Example 14
Procedure: Two volumes of water were tested, namely 20 ml and 40 ml in two different containers, namely a small bottle and a beaker. One volume of water was tested, namely 20 ml, and a single container, namely a small bottle. In the case of the above two formulations, the behaviour of ibuprofen in water was tested and the generation of bubbles was optimised by increasing the quantity of citric acid, sodium bicarbonate and potassium hydrogen carbonate.

SMILES	remaining in suspension in water [1]	stability in water [1]	remaining in suspension in water [2]	stability in water [2]
CC(=O)Nc1ccc(O)cc1 [acetaminophen, Acetaminophen]	does not remain in suspension	not stable in water		
CC(C)Cc1ccc(C(C)C(=O)O)cc1 (stereo not drawn) [ibuprofen, 4-Isobutyl-Alpha-Methylphenylacetic Acid (Ibuprofen)]			does not remain in suspension	not stable in water
